Reference: ChEMBL document CHEMBL1201862, “PubChem BioAssay data set” (2004)
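Protocol summary: plate cells (96-well), add compound at 5 concentrations, incubate 48 h, interpolate endpoints linearly. GI50: concentration for 50% inhibition of growth.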 Activity calls are given as the source filed them. Cut-off read from the data, not from the text of the source: active = GI50 up to about 1.1 µM and inactive = higher.

What was measured:
Assay in all cases: NCI anticancer screen, dose series, 48 h
TK-10 = tested on: TK-10
Hs-578T = tested on: Hs-578T
MDA-MB-435 = tested on: MDA-MB-435
SNB-75 = tested on: SNB-75
MDA-MB-231 = tested on: MDA-MB-231
UACC-62 = tested on: UACC-62
OVCAR-3 = tested on: OVCAR-3
RPMI-8226 = tested on: RPMI-8226
A498 = tested on: A498
786-0 = tested on: 786-0
HOP-62 = tested on: HOP-62
Malme-3M = tested on: Malme-3M
HL-60 = tested on: HL-60
SN12C = tested on: SN12C
LOX IMVI = tested on: LOX IMVI
RXF 393 = tested on: RXF 393
PC-3 = tested on: PC-3
HCT-15 = tested on: HCT-15
SK-MEL-28 = tested on: SK-MEL-28
SF-268 = tested on: SF-268

**Q.** `CC1CC2CCCC(=O)C2=C(O)O1` (stereo not given) was tested. Which GI50 (TK-10) did it give?
**A.** > 100 µM (inactive)

**Q.** And the GI50 (Hs-578T)?
**A.** > 100 µM (inactive)

**Q.** And the GI50 (MDA-MB-435)?
**A.** > 100 µM (inactive)

**Q.** What about the GI50 (SNB-75) of the same compound?
**A.** > 100 µM (inactive)

**Q.** What about the GI50 (MDA-MB-231) of the same compound?
**A.** > 100 µM (inactive)

**Q.** And the GI50 (UACC-62)?
**A.** > 100 µM (inactive)

**Q.** And the GI50 (OVCAR-3)?
**A.** > 100 µM (inactive)

**Q.** What about the GI50 (RPMI-8226) of the same compound?
**A.** > 100 µM (inactive)

**Q.** And the GI50 (A498)?
**A.** > 100 µM (inactive)

**Q.** What about the GI50 (786-0) of the same compound?
**A.** > 100 µM (inactive)

**Q.** What about the GI50 (HOP-62) of the same compound?
**A.** > 100 µM (inactive)

**Q.** And the GI50 (Malme-3M)?
**A.** > 100 µM (inactive)

**Q.** And the GI50 (HL-60)?
**A.** > 100 µM (inactive)

**Q.** And the GI50 (SN12C)?
**A.** > 100 µM (inactive)

**Q.** And the GI50 (LOX IMVI)?
**A.** > 100 µM (inactive)

**Q.** And the GI50 (RXF 393)?
**A.** > 100 µM (inactive)

**Q.** And the GI50 (PC-3)?
**A.** > 100 µM (inactive)

**Q.** And the GI50 (HCT-15)?
**A.** > 100 µM

**Q.** What about the GI50 (SK-MEL-28) of the same compound?
**A.** > 100 µM (inactive)

**Q.** And the GI50 (SF-268)?
**A.** > 100 µM (inactive)

**Q.** For `COc1ccc(NC(=S)Nc2cc(C)cc(C)n2)cc1`, which GI50 (TK-10) is on record?
**A.** > 100 µM (inactive)

**Q.** And the GI50 (Hs-578T)?
**A.** > 100 µM (inactive)

**Q.** What about the GI50 (MDA-MB-435) of the same compound?
**A.** > 100 µM (inactive)

**Q.** What about the GI50 (SNB-75) of the same compound?
**A.** > 100 µM (inactive)

**Q.** And the GI50 (MDA-MB-231)?
**A.** > 100 µM (inactive)

**Q.** And the GI50 (UACC-62)?
**A.** > 100 µM (inactive)

**Q.** And the GI50 (OVCAR-3)?
**A.** > 100 µM (inactive)

**Q.** And the GI50 (RPMI-8226)?
**A.** > 100 µM (inactive)

**Q.** What about the GI50 (A498) of the same compound?
**A.** > 100 µM (inactive)

**Q.** What about the GI50 (786-0) of the same compound?
**A.** > 100 µM (inactive)

**Q.** And the GI50 (HOP-62)?
**A.** > 100 µM (inactive)

**Q.** And the GI50 (Malme-3M)?
**A.** > 100 µM (inactive)

**Q.** And the GI50 (HL-60)?
**A.** > 100 µM (inactive)

**Q.** And the GI50 (SN12C)?
**A.** > 100 µM (inactive)

**Q.** What about the GI50 (LOX IMVI) of the same compound?
**A.** > 100 µM (inactive)

**Q.** And the GI50 (RXF 393)?
**A.** > 100 µM (inactive)

**Q.** And the GI50 (PC-3)?
**A.** > 100 µM (inactive)

**Q.** What about the GI50 (HCT-15) of the same compound?
**A.** > 100 µM

**Q.** What about the GI50 (SK-MEL-28) of the same compound?
**A.** > 100 µM (inactive)

**Q.** And the GI50 (SF-268)?
**A.** > 100 µM (inactive)

**Q.** Which results are given for `Cc1ccc2c(c1)c1ccc3c(c1n2C)C(=O)C=CC3=O`?
**A.** GI50 (TK-10): 2 µM (inactive); GI50 (Hs-578T): 3.08 µM (inactive); GI50 (MDA-MB-435): 2.35 µM (inactive); GI50 (SNB-75): > 10 µM (inactive); GI50 (MDA-MB-231): 2.36 µM (inactive); GI50 (UACC-62): 3.01 µM (inactive); GI50 (OVCAR-3): 1.95 µM (inactive); GI50 (RPMI-8226): 1.23 µM (inactive); GI50 (A498): 2.88 µM (inactive); GI50 (786-0): 1.95 µM (inactive); GI50 (HOP-62): > 10 µM (inactive); GI50 (Malme-3M): 2 µM (inactive); GI50 (HL-60): 0.75 µM (active); GI50 (SN12C): 3.52 µM (inactive); GI50 (LOX IMVI): 9.53 µM (inactive); GI50 (RXF 393): 1.97 µM (inactive); GI50 (PC-3): 3.66 µM (inactive); GI50 (HCT-15): 1.75 µM; GI50 (SK-MEL-28): 2.18 µM (inactive); GI50 (SF-268): 3.43 µM (inactive)

**Q.** What does the source list for `O=c1[nH]nc(-c2ccccc2)n1/N=C/c1cccc([N+](=O)[O-])c1`?
**A.** GI50 (TK-10): > 100 µM (inactive); GI50 (Hs-578T): > 100 µM (inactive); GI50 (MDA-MB-435): > 100 µM (inactive); GI50 (SNB-75): > 100 µM (inactive); GI50 (MDA-MB-231): > 100 µM (inactive); GI50 (UACC-62): > 100 µM (inactive); GI50 (OVCAR-3): > 100 µM (inactive); GI50 (RPMI-8226): > 100 µM (inactive); GI50 (A498): > 100 µM (inactive); GI50 (786-0): > 100 µM (inactive); GI50 (HOP-62): 28.7 µM (inactive); GI50 (Malme-3M): > 100 µM (inactive); GI50 (HL-60): > 100 µM (inactive); GI50 (SN12C): > 100 µM (inactive); GI50 (LOX IMVI): > 100 µM (inactive); GI50 (RXF 393): 49.8 µM (inactive); GI50 (PC-3): > 100 µM (inactive); GI50 (HCT-15): > 100 µM; GI50 (SK-MEL-28): > 100 µM (inactive); GI50 (SF-268): > 100 µM (inactive)

**Q.** How did the GI50 (TK-10) turn out when `CC(NC1=NCCO1)c1cccc([N+](=O)[O-])c1` (stereo not given) was run?
**A.** > 100 µM (inactive)

**Q.** What about the GI50 (Hs-578T) of the same compound?
**A.** > 100 µM (inactive)

**Q.** What about the GI50 (MDA-MB-435) of the same compound?
**A.** > 100 µM (inactive)

**Q.** What about the GI50 (SNB-75) of the same compound?
**A.** > 100 µM (inactive)

**Q.** What about the GI50 (MDA-MB-231) of the same compound?
**A.** > 100 µM (inactive)

**Q.** And the GI50 (UACC-62)?
**A.** > 100 µM (inactive)

**Q.** And the GI50 (OVCAR-3)?
**A.** > 100 µM (inactive)

**Q.** And the GI50 (RPMI-8226)?
**A.** > 100 µM (inactive)

**Q.** And the GI50 (A498)?
**A.** > 100 µM (inactive)

**Q.** What about the GI50 (786-0) of the same compound?
**A.** > 100 µM (inactive)

**Q.** What about the GI50 (HOP-62) of the same compound?
**A.** > 100 µM (inactive)

**Q.** What about the GI50 (Malme-3M) of the same compound?
**A.** > 100 µM (inactive)

**Q.** What about the GI50 (HL-60) of the same compound?
**A.** > 100 µM (inactive)

**Q.** What about the GI50 (SN12C) of the same compound?
**A.** > 100 µM (inactive)

**Q.** And the GI50 (LOX IMVI)?
**A.** > 100 µM (inactive)

**Q.** And the GI50 (RXF 393)?
**A.** > 100 µM (inactive)

**Q.** What about the GI50 (PC-3) of the same compound?
**A.** > 100 µM (inactive)

**Q.** What about the GI50 (HCT-15) of the same compound?
**A.** > 100 µM

**Q.** What about the GI50 (SK-MEL-28) of the same compound?
**A.** > 100 µM (inactive)

**Q.** And the GI50 (SF-268)?
**A.** > 100 µM (inactive)

**Q.** Which GI50 (TK-10) does the source give for `N#C/C(=C\Nc1ccccn1)C(=O)c1ccco1` here?
**A.** > 100 µM (inactive)

**Q.** And the GI50 (Hs-578T)?
**A.** > 100 µM (inactive)

**Q.** What about the GI50 (MDA-MB-435) of the same compound?
**A.** > 100 µM (inactive)

**Q.** And the GI50 (SNB-75)?
**A.** > 100 µM (inactive)

**Q.** And the GI50 (MDA-MB-231)?
**A.** > 100 µM (inactive)

**Q.** What about the GI50 (UACC-62) of the same compound?
**A.** > 100 µM (inactive)

**Q.** And the GI50 (OVCAR-3)?
**A.** > 100 µM (inactive)

**Q.** What about the GI50 (RPMI-8226) of the same compound?
**A.** > 100 µM (inactive)

**Q.** And the GI50 (A498)?
**A.** > 100 µM (inactive)

**Q.** What about the GI50 (786-0) of the same compound?
**A.** > 100 µM (inactive)

**Q.** And the GI50 (HOP-62)?
**A.** > 100 µM (inactive)

**Q.** And the GI50 (Malme-3M)?
**A.** > 100 µM (inactive)

**Q.** What about the GI50 (HL-60) of the same compound?
**A.** > 100 µM (inactive)

**Q.** What about the GI50 (SN12C) of the same compound?
**A.** > 100 µM (inactive)

**Q.** And the GI50 (LOX IMVI)?
**A.** > 100 µM (inactive)

**Q.** What about the GI50 (RXF 393) of the same compound?
**A.** > 100 µM (inactive)

**Q.** And the GI50 (PC-3)?
**A.** > 100 µM (inactive)

**Q.** What about the GI50 (HCT-15) of the same compound?
**A.** > 100 µM

**Q.** And the GI50 (SK-MEL-28)?
**A.** > 100 µM (inactive)

**Q.** And the GI50 (SF-268)?
**A.** > 100 µM (inactive)

**Q.** Which results are given for `O=C1/C(=C/c2ccc(O)c([N+](=O)[O-])c2)CCC/C1=C\c1ccc(O)c([N+](=O)[O-])c1`?
**A.** GI50 (TK-10): 23.2 µM (inactive); GI50 (Hs-578T): 4.48 µM (inactive); GI50 (MDA-MB-435): 9.53 µM (inactive); GI50 (SNB-75): 1.61 µM (inactive); GI50 (MDA-MB-231): 21.9 µM (inactive); GI50 (UACC-62): 7.23 µM (inactive); GI50 (OVCAR-3): 8.36 µM (inactive); GI50 (RPMI-8226): 13.1 µM (inactive); GI50 (A498): 6.55 µM (inactive); GI50 (786-0): 11.5 µM (inactive); GI50 (HOP-62): 12.5 µM (inactive); GI50 (Malme-3M): 8.63 µM (inactive); GI50 (HL-60): 14.6 µM (inactive); GI50 (SN12C): 11.4 µM (inactive); GI50 (LOX IMVI): 9.89 µM (inactive); GI50 (RXF 393): 10 µM (inactive); GI50 (PC-3): 13.3 µM (inactive); GI50 (HCT-15): 12.4 µM; GI50 (SK-MEL-28): 7.5 µM (inactive); GI50 (SF-268): 4.28 µM (inactive)
